Consider twelve molecules from ChEMBL document CHEMBL1201862, “PubChem BioAssay data set” (2004).

Some test systems named below: A549; COLO 205; EKVX; LOX IMVI; MCF7; MDA-MB-231; MDA-MB-435; NCI-H226; NCI-H23; NCI-H522; NCI/ADR-RES; OVCAR-4; PC-3; SK-MEL-2; SN12C; SR; DU-145; HL-60; SW-620.
Common to all, as to experiment: DTP human tumour cell line panel, 48 h

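Step 1: Grow cells in 96-well plates. Step 2: Expose to compound for 48 hours at 5 concentrations. Step 3: Interpolate endpoints linearly; if unreached, use highest concentration. At the GI50, growth is halved.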 Active and inactive are the calls of the source. Rule as the data show it: active = GI50 up to about 1.1 µM and inactive = higher.

For orientation: GI50 means the concentration that inhibits growth by half. Regarding `O=C(O)CCc1ccc2c(c1)CC1(Cc3ccccc3C1)C2`, the GI50 with A549 was > 100 µM (inactive); in the test with COLO 205, 78 µM (inactive); in the test with EKVX, > 100 µM (inactive); with LOX IMVI, > 100 µM (inactive); in the test with MCF7 it was > 100 µM (inactive); in the test with MDA-MB-231, > 100 µM (inactive). Besides, the GI50 was > 100 µM (inactive) in the test on MDA-MB-435; 79.8 µM (inactive) in the test with NCI-H226; > 100 µM (inactive) in the test on NCI-H23; > 100 µM (inactive) with NCI-H522; > 100 µM (inactive) in the test with NCI/ADR-RES; 49.3 µM (inactive) in the test on OVCAR-4. The GI50 with PC-3 is > 100 µM (inactive); with SK-MEL-2 it was > 100 µM (inactive); with SN12C, > 100 µM (inactive); in the test with SR, 37.9 µM (inactive).
For the molecule `COc1ccc2c(c1)CCN=C2c1ccccc1CCCCl`, the GI50 in the test on A549 is 24.2 µM (inactive); in the test on COLO 205, 11 µM (inactive); in the test on DU-145 it was 36.5 µM (inactive); in the test with EKVX, 17.7 µM (inactive); in the test with HL-60, 11.4 µM (inactive); with MCF7 it was 23.1 µM (inactive). For the same molecule, the GI50 in the test on MDA-MB-231 is 19 µM (inactive); in the test with MDA-MB-435, 38.7 µM (inactive); in the test with NCI-H226, 15.7 µM (inactive); in the test on NCI-H23, 4.85 µM (inactive); in the test with NCI-H522 it was 11.5 µM (inactive); with NCI/ADR-RES, 26.4 µM (inactive). Moreover, the GI50 was 13.7 µM (inactive) with OVCAR-4; 17 µM (inactive) in the test with PC-3; 28 µM (inactive) in the test on SK-MEL-2; 6.93 µM (inactive) in the test on SN12C; > 100 µM (inactive) in the test on SW-620.
Consider `C[C@H](N)C(=O)Nc1ccc(-c2nc3ccccc3s2)cc1Cl`, for which the GI50 in the test with A549 is 13.3 µM (inactive); with COLO 205, 12.5 µM (inactive); in the test with DU-145, 16.6 µM (inactive); in the test on EKVX it was 11.9 µM (inactive); in the test on LOX IMVI it was 7.82 µM (inactive); with MDA-MB-435, 13.6 µM (inactive). Besides, the GI50 in the test on NCI-H226 is 0.0745 µM (active); with NCI-H23 it was 16.5 µM (inactive); in the test on NCI-H522 it was 20.5 µM (inactive); in the test on NCI/ADR-RES, 30.8 µM (inactive); in the test on PC-3, 13.8 µM (inactive); in the test with SK-MEL-2, 15.7 µM (inactive). Further, the GI50 in the test on SN12C was 15.9 µM (inactive); in the test on SR, 3.8 µM (inactive); with SW-620, 15.2 µM (inactive).
Regarding `C=C(C)[C@@]1(OC(=O)c2cc([N+](=O)[O-])cc([N+](=O)[O-])c2)C[C@@H]2CCCC[C@@H]21`, the GI50 was 39.4 µM (inactive) in the test with A549; 39.2 µM (inactive) with COLO 205; > 100 µM (inactive) with DU-145; 37.2 µM (inactive) in the test with EKVX; 95.1 µM (inactive) in the test with HL-60; > 100 µM (inactive) in the test with LOX IMVI. For the same molecule, the GI50 was 64 µM (inactive) with MCF7; > 100 µM (inactive) with MDA-MB-231; > 100 µM (inactive) in the test on NCI-H226; > 100 µM (inactive) in the test with NCI-H23; > 100 µM (inactive) with NCI-H522; > 100 µM (inactive) in the test with NCI/ADR-RES. Besides, the GI50 was 56.2 µM (inactive) in the test on OVCAR-4; > 100 µM (inactive) in the test with PC-3; 58.3 µM (inactive) in the test on SK-MEL-2; > 100 µM (inactive) in the test with SN12C; > 100 µM (inactive) in the test with SR; > 100 µM (inactive) with SW-620.
Take `CC(=O)N(CCc1ccccc1)C(C#N)c1ccc(OCCCCCCCCCCOc2ccc(C(C#N)N(CCc3ccccc3)C(C)=O)cc2)cc1` (stereo unspecified): the GI50 was > 100 µM (inactive) in the test on A549; > 100 µM (inactive) with COLO 205; 85.9 µM (inactive) in the test with DU-145; 36.5 µM (inactive) in the test with EKVX; > 100 µM (inactive) in the test on HL-60; > 100 µM (inactive) in the test with LOX IMVI. For the same molecule, the GI50 in the test on MCF7 was > 100 µM (inactive); in the test with MDA-MB-231, 15.2 µM (inactive); with MDA-MB-435, > 100 µM (inactive); in the test on NCI-H226, 22 µM (inactive); in the test with NCI-H23, 44.9 µM (inactive); in the test with NCI/ADR-RES, 24.6 µM (inactive). Also, the GI50 is 5.41 µM (inactive) in the test on OVCAR-4; 63.4 µM (inactive) in the test on PC-3; 47.2 µM (inactive) with SK-MEL-2; > 100 µM (inactive) in the test with SN12C; > 100 µM (inactive) with SW-620.
`COc1ccc(C[C@@H](CO)NC2=C(C#N)CCC2)cc1`: the GI50 in the test with A549 is 86.7 µM (inactive); in the test on COLO 205, 43.7 µM (inactive); with DU-145, 50.6 µM (inactive); with EKVX, 35.7 µM (inactive); in the test with HL-60, 11 µM (inactive); in the test with LOX IMVI it was 23.7 µM (inactive). Also, the GI50 is 26.9 µM (inactive) in the test with MCF7; 15.1 µM (inactive) in the test on MDA-MB-231; 48 µM (inactive) with MDA-MB-435; 48.3 µM (inactive) with NCI-H226; 52.4 µM (inactive) in the test with NCI-H23; 28.4 µM (inactive) in the test with NCI/ADR-RES. The GI50 in the test with OVCAR-4 was 32.1 µM (inactive); with PC-3, 32.3 µM (inactive); with SK-MEL-2, > 100 µM (inactive); in the test on SN12C, > 100 µM (inactive); with SW-620, 49.2 µM (inactive).
Turning to `CC(=O)Oc1ccc2c(c1)CC[C@@H]1C2[C@@H](O[N+](=O)[O-])C[C@@]2(C)C1CC[C@@H]2O[N+](=O)[O-]` (stereo partly specified), the GI50 with A549 is 13.2 µM (inactive); with COLO 205, 16.8 µM (inactive); in the test on DU-145, 14.2 µM (inactive); in the test with EKVX, 12.3 µM (inactive); in the test with HL-60 it was 16.4 µM (inactive); with LOX IMVI, 13.7 µM (inactive). Moreover, the GI50 in the test with MCF7 is 9.42 µM (inactive); with MDA-MB-435, 15.5 µM (inactive); with NCI-H23, 12.7 µM (inactive); in the test with NCI-H522, 11.1 µM (inactive); with NCI/ADR-RES, 14.3 µM (inactive); in the test on OVCAR-4, 16.3 µM (inactive). Further, the GI50 in the test on PC-3 was 10.5 µM (inactive); with SK-MEL-2 it was 15.4 µM (inactive); in the test on SN12C it was 15.5 µM (inactive); in the test with SR, 5.31 µM (inactive); with SW-620 it was 16.1 µM (inactive).
On to `CCOC(=O)[C@@H]1ON2O[C@H](OC3CCCC3(c3ccccc3)c3ccccc3)C[C@H]3OC(=O)[C@@H]1C32` (stereo partly specified), for which the GI50 is 27.8 µM (inactive) in the test on A549; 40.6 µM (inactive) with COLO 205; 25.5 µM (inactive) with DU-145; > 100 µM (inactive) in the test with EKVX; 22.2 µM (inactive) in the test with HL-60; 27.2 µM (inactive) in the test on LOX IMVI. In addition, the GI50 in the test with MCF7 was 34.4 µM (inactive); in the test on MDA-MB-231, 36.6 µM (inactive); in the test with MDA-MB-435, 30.1 µM (inactive); in the test on NCI-H226 it was 36.4 µM (inactive); in the test on NCI-H23, 27 µM (inactive); in the test on NCI-H522, 36.4 µM (inactive). Also, the GI50 in the test with NCI/ADR-RES was 31.8 µM (inactive); in the test with SN12C, 97.5 µM (inactive); in the test on SR it was 33.7 µM (inactive); in the test on SW-620 it was 28.2 µM (inactive).
Consider `COC(NC(=O)Nc1ccccc1C)(C(F)(F)F)C(F)(F)F`, for which the GI50 in the test with A549, in the test on COLO 205, in the test on DU-145, in the test with HL-60, with LOX IMVI and with MCF7 was > 100 µM (inactive) each time. Further, the GI50 in the test on MDA-MB-435 is > 100 µM (inactive); in the test with NCI-H226, > 100 µM (inactive); in the test on NCI-H23, 81.5 µM (inactive); with NCI-H522 it was 30.4 µM (inactive); with NCI/ADR-RES, > 100 µM (inactive); with OVCAR-4, > 100 µM (inactive). The GI50 in the test on PC-3 was 56.4 µM (inactive); with SN12C, > 100 µM (inactive); in the test on SR, > 100 µM (inactive); in the test on SW-620, > 100 µM (inactive).
With `CC1CN=C(N(C(=O)Nc2ccc(F)c(Cl)c2)c2ccccc2)S1` (stereo unspecified), the GI50 in the test with A549 was 24.2 µM (inactive); in the test on COLO 205, 19.3 µM (inactive); in the test with DU-145 it was 36.8 µM (inactive); in the test on EKVX it was 22 µM (inactive); in the test on HL-60 it was > 10 µM (inactive); in the test on LOX IMVI it was 17.5 µM (inactive). Also, the GI50 in the test with MCF7 was 10.4 µM (inactive); in the test with MDA-MB-231 it was 17.7 µM (inactive); in the test with NCI-H23, 19.2 µM (inactive); in the test with NCI/ADR-RES, 17.9 µM (inactive); in the test with OVCAR-4 it was 48.3 µM (inactive); in the test on PC-3, 24.1 µM (inactive). The GI50 with SK-MEL-2 is 17.5 µM (inactive); with SN12C, 17.2 µM (inactive); with SR it was > 10 µM (inactive); with SW-620 it was 27.5 µM (inactive).
Consider `c1ccc([P+](CCNCCNCC[P+](c2ccccc2)(c2ccccc2)c2ccccc2)(c2ccccc2)c2ccccc2)cc1`, for which the GI50 with A549, in the test with COLO 205, with DU-145, with EKVX, with MCF7 and in the test on MDA-MB-231 was > 100 µM (inactive) each time. For the same molecule, the GI50 in the test with MDA-MB-435, in the test on NCI-H226, in the test on NCI-H23, with NCI/ADR-RES, in the test with OVCAR-4 and in the test on SK-MEL-2 was > 100 µM (inactive) in each case. The GI50 in the test on SN12C and in the test with SW-620 was > 100 µM (inactive) each time.
For `Cc1cc(/N=N/c2ccccc2C)ccc1N`, the GI50 in the test with A549 is 4.32 µM (inactive); with COLO 205 it was 18.4 µM (inactive); in the test on EKVX, 15.5 µM (inactive); in the test on HL-60 it was 2.96 µM (inactive); with LOX IMVI it was 11.4 µM (inactive); with MCF7, 4.06 µM (inactive). The GI50 in the test with MDA-MB-231 is 14.8 µM (inactive); in the test with MDA-MB-435, 19.5 µM (inactive); in the test with NCI-H226, 13.9 µM (inactive); in the test with NCI-H23 it was 3.99 µM (inactive); in the test on NCI/ADR-RES it was 11.1 µM (inactive); in the test with OVCAR-4 it was 19.4 µM (inactive). Besides, the GI50 with PC-3 is 11.1 µM (inactive); with SK-MEL-2, 15.6 µM (inactive); with SN12C it was 12.4 µM (inactive); with SR it was 12.7 µM (inactive); in the test with SW-620, 19.6 µM (inactive).
